Test results from US10870660B2, “Nitrogen-containing condensed ring compounds having dopamine D3 antagonistic effect” (Shionogi & Co., Ltd., priority 2016, dated 2020).

Assays:
[1] = target: human recombinant dopamine D2 receptor (Homo sapiens (Human), UniProt P14416); assay: Test of binding inhibition for the human dopamine D2 receptor ([3H]-Metylspiperone SPA binding); conditions: [3H]-Metylspiperone 1.2 nM, Jump-In HEK cell membranes, read-out: hD2_Ki
Procedure: Cell membranes: Jump-In HEK cell membranes expressing human recombinant dopamine D2 receptor (2 μg/well)
Buffer solution: 50 mM Tris-HCl (35409-45, Nacalai Tesque) (pH 7.4) containing 120 mM NaCl (31320-05, Nacalai Tesque), 1 mM MgCl2.6H2O (20909-55, Nacalai Tesque), 5 mM KCl (28514-75, Nacalai Tesque) and 2 mM CaCl2 (067-31, Nacalai Chemical, Ltd)
Radioligand: (final concentration) 1.2 nM [^3H]-Metylspiperone ([^3H—N-methyl-]-Metylspiperone, NET-856, 83.8 Ci/mmol, PerkinElmer)
(§1) Non-specific ligand: (final concentration) 10 μM Butaclamol [(+)-Butaclamol Hydrochioride, D033, Sigma]
(§2) SPA beads: SPA beads [WGA PVT SPA Scintillatiion Beads, RPNQ0001 (500 mg), RPNQ0060 (2 g), PerkinElmer] (0.2 mg/well)
(§3) Incubation time and temperature: 120 min at 25° C.
(§4) Butaclamol or the compounds of the present invention were weighed and DMSO was added to make a 10 mM solution. This solution was diluted to each concentration.
[^3H]-Metylspiperone was weighed and the buffer solution was added to make a 3.6 nM solution.
(§5) SPA beads were weighed and stirred in water to make a 50 mg/mL solution. Using this solution, a mixed solution with the cell membranes was prepared.
225 nL of the solutions of the non-specific ligand or the compounds of the present invention at each concentration (in case of vehicle, final concentration 0.3% DMSO) were added in each well of a 384-well white/clear bottom microplate (3706, Corning). Jump-In HEK Cell membranes (final reaction amount: 2 μg protein/well), SPA beads (final reaction amount: 0.2 mg/well) and the buffer were mixed and the mixed solution was left still for more than or equal to 1 h at 4° C. Then, 50 μL of the mixture was added to each well of the plate. In addition, 25 μL of 3.6 nM [^3H]-Metylspiperone (final concentration: 1.2 nM) was added to each well. The plate was sealed by putting TopSeal-A 96/384 well (6050185, PerkinElmer) on the top of the plate, mixed using stirring deaerator (Welltornado, FK-62, Sakaki) and incubated for 120 min at 25° C. After incubation, the radioactivity of [^3H]-Metylspiperone which was binded to D2 receptor was determined by liquid scintillation counter (1450 Microbeta, PerkinElmer) in each well. Non-specific binding was calculated based on the radioactivity of [^3H]-Metylspiperone in the presence of 10 μM non-labeled Butaclamol. The total binding was calculated using the radioactivity of [^3H]-Metylspiperone in the absence of the compounds of the present invention (Vehicle). The Ki values were calculated from dose-response curves.
(§6) Binding activities of the compounds of the present invention were calculated from the following Binding Inhibition Rate (%): Inhibition Rate (%)=[1−(c−a)(b−a)]×100(%) • a: Average cpm of non-specific binding • b: Average cpm of total binding • c: Cpm in the presence of each test compound

[2] = target: human recombinant dopamine D3 receptor (Homo sapiens (Human), UniProt P35462); assay: Test of binding inhibition for the human dopamine D3 receptor ([3H]-Metylspiperone SPA binding); conditions: [3H]-Metylspiperone 2 nM, Jump-In HEK cell membranes, read-out: hD3_Ki
Chain of human recombinant dopamine D3 receptor (P35462 whole entry): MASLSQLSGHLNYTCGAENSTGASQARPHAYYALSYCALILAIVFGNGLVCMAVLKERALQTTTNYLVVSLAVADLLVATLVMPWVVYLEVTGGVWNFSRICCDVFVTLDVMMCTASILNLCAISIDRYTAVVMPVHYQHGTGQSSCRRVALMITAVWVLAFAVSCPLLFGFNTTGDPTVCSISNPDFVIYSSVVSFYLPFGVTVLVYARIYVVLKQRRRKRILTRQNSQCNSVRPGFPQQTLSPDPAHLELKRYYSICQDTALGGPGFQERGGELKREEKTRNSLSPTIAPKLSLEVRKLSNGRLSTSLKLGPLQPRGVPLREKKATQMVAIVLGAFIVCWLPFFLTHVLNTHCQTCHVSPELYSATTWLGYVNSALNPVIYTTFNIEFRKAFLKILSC
Procedure: Cell membranes: Jump-In HEK cell membranes expressing human recombinant dopamine D3 receptor (4 μg/well)
as §1, §2, §3, §4
[^3H]-Metylspiperone was weighed and the buffer solution was added to make a 6 nM solution.
as §5
Jump-In HEK Cell membranes (final reaction amount: 4 μg/well), SPA beads (final reaction amount: 0.2 mg/well) and Tris-HCl buffer were mixed and the mixed solution was left still for more than 60 min at 4° C. Then, 50 μL of the mixture was added to each well of the plate. In addition, 25 μL of 6 nM [^3H]-Metylspiperone (final concentration: 2 nM) was added to each well. […] Non-specific binding was calculated based on the radioactivity of [^3H]-Metylspiperone in the presence of 10 μM non-labeled Butaclamol. The total binding was calculated based on the radioactivity of [^3H]-Metylspiperone in the absence of the compounds of the present invention (Vehicle). The Ki values were calculated from dose-response curves.
as §6

Chain of human recombinant dopamine D2 receptor (P14416 whole entry): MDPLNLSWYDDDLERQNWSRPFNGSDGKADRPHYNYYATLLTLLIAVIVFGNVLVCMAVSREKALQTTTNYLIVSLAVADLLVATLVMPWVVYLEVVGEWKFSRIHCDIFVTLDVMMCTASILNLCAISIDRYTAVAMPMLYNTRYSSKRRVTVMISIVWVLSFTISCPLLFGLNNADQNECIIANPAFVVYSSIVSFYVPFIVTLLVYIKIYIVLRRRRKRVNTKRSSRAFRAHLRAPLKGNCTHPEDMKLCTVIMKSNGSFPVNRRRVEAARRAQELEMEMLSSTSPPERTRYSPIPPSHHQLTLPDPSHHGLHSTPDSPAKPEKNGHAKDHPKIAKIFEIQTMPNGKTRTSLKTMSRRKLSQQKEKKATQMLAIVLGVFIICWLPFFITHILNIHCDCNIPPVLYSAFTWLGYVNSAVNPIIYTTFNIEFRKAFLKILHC

Cn1cc2c(C(=O)N[C@H]3CC[C@H](CCN4CCc5sc(CCC(F)(F)F)nc5C4)CC3)cccc2n1 [III-452]
Ki [1]: 1000 nM
Ki [2]: 0.29 nM

Cc1cnc(CC(=O)N[C@H]2CC[C@H](CCN3CCc4nc(OCC(F)(F)F)sc4CC3)OC2)o1 [III-220]
Ki [1]: 1100 nM
Ki [2]: 0.78 nM

Cc1ncccc1C(=O)N[C@H]1CC[C@H](CCN2CCc3sc(OCC(C)(F)F)nc3C2)CC1 [III-555]
Ki [1]: 310 nM
Ki [2]: 0.4 nM

O=C(N[C@H]1CC[C@H](CCN2CC[C@H]3CN(c4ccccc4)C[C@@H]3C2)CC1)c1cccc2ncccc12 (racemic) [Compound I-033]
Ki [1]: 170 nM
Ki [2]: 3.6 nM

Cn1cc2c(C(=O)N[C@H]3CC[C@H](CCN4CCc5ccc(OC6CC(F)(F)C6)nc5CC4)CC3)cccc2n1 [III-155]
Ki [1]: > 1700 nM
Ki [2]: 0.25 nM

CN1Cc2c(C(=O)N[C@H]3CC[C@H](CCN4CCc5nc(OCC(F)(F)F)sc5CC4)CC3)cccc2C1=O [II-047]
Ki [1]: 280 nM
Ki [2]: 0.022 nM

CCn1c(C(=O)N[C@H]2CC[C@H](CCN3CCc4sc(CCC(F)(F)F)nc4C3)CC2)cccc1=O [III-704]
Ki [1]: 380 nM
Ki [2]: 0.51 nM

Cc1ncc(OCC(=O)N[C@H]2CC[C@](F)(CCN3CCc4nc(OCC(F)(F)F)sc4CC3)CC2)cn1 [III-254]
Ki [1]: 570 nM
Ki [2]: 0.43 nM

CC(Oc1nc2c(s1)CCN(CC[C@H]1CC[C@H](NC(=O)c3cccc4c3CN(C)C4=O)CC1)CC2)C(F)(F)F (some centres unmarked) [III-064]
Ki [1]: 640 nM
Ki [2]: 0.026 nM

Cn1cc2c(C(=O)NN3CCC(CCN4CCc5sc(OCC(F)(F)F)nc5C4)CC3)cccc2n1 [III-661]
Ki [1]: 1300 nM
Ki [2]: 0.5 nM

Cn1cc2c(C(=O)N[C@H]3CC[C@H](CCN4CCc5sc(CCC(F)F)nc5C4)CC3)cccc2n1 [III-685]
Ki [1]: 280 nM
Ki [2]: 0.1 nM

Cn1cc(OCC(=O)N[C@H]2CC[C@H](CCN3CCc4sc(OCC(C)(F)F)nc4C3)CC2)cn1 [III-573]
Ki [1]: 350 nM
Ki [2]: 0.32 nM

Cn1cc(CC(=O)N[C@H]2CC[C@H](CCN3CCc4ccc(OCC(F)(F)F)nc4CC3)OC2)cn1 [III-230]
Ki [1]: 640 nM
Ki [2]: 0.99 nM

O=C(NCCCCN1CCc2ccc(OCC(F)(F)F)nc2CC1)c1cc2ccccc2[nH]1 [II-105]
Ki [1]: 1100 nM
Ki [2]: 0.11 nM

CCN1Cc2c(C(=O)N[C@H]3CC[C@H](CCN4CCc5sc(CCC(F)(F)F)nc5C4)CC3)cccc2C1=O [III-701]
Ki [1]: 190 nM
Ki [2]: 0.15 nM

Cn1cc2c(C(=O)N[C@H]3CC[C@H](CCN4CCc5sc(OCC(F)(F)F)nc5C4)CC3)cccc2n1 [III-464]
Ki [1]: 580 nM
Ki [2]: 0.37 nM

Cc1ncc(CC(=O)N[C@H]2CC[C@H](CCN3CCc4sc(OCC(F)F)nc4C3)CC2)s1 [Compound I-107]
Ki [1]: 370 nM
Ki [2]: 0.82 nM

CC(C)C(=O)N[C@H]1CC[C@H](CCN2CCc3nc(OCC(F)(F)F)sc3CC2)CC1 [III-031]
Ki [1]: 240 nM
Ki [2]: 0.31 nM

Cn1cc2c(C(=O)N[C@H]3CC[C@H](CCN4CCc5sc(OCC(C)(F)F)nc5C4)CC3)ccc(F)c2n1 [III-666]
Ki [1]: 210 nM
Ki [2]: 0.2 nM

Cn1cc(CC(=O)N[C@H]2CC[C@](F)(CCN3CCc4ccc(OCC(F)(F)F)nc4CC3)CC2)cn1 [III-102]
Ki [1]: 400 nM
Ki [2]: 0.11 nM

Cn1cc(CC(=O)N[C@H]2CC[C@](F)(CCN3CCc4nc(OCC(F)(F)F)sc4CC3)CC2)cn1 [III-261]
Ki [1]: 480 nM
Ki [2]: 0.57 nM

Cn1c(C#N)cc2c1CCN(CC[C@H]1CC[C@H](NC(=O)c3cccc4ncccc34)CC1)C2 [Compound I-052]
Ki [1]: 1100 nM
Ki [2]: 1 nM

Cc1ncc(CC(=O)N[C@H]2CC[C@H](CCN3CCc4nc(OCC(C)(F)F)sc4CC3)CC2)o1 [II-029]
Ki [1]: 1300 nM
Ki [2]: 0.12 nM

Cc1ncc(CC(=O)N[C@H]2CC[C@H](CCN3CCc4cc(C)c(OCC(F)F)nc4CC3)OC2)s1 [III-008]
Ki [1]: 480 nM
Ki [2]: 0.25 nM

O=C(NCCCCN1CCc2sc(OCC(F)(F)F)nc2C1)c1ccc2ccccc2c1 [Compound I-140]
Ki [1]: 1200 nM
Ki [2]: 1.9 nM

CCN1Cc2c(C(=O)N[C@H]3CC[C@H](CCN4CCc5ccc(OCC(F)(F)F)nc5CC4)OC3)cccc2C1=O [III-236]
Ki [1]: 120 nM
Ki [2]: 0.086 nM

CN1Cc2c(C(=O)N[C@H]3CC[C@H](CCN4CCc5ccc(OCC(C)(F)F)nc5CC4)CC3)cccc2C1=O [III-024]
Ki [1]: 140 nM
Ki [2]: 0.012 nM

O=C(N[C@H]1CC[C@H](CCN2CCc3sc(N4CC5CC5C4)nc3C2)CC1)c1cccc2ncccc12 (some centres unmarked) [Compound I-073]
Ki [1]: > 1700 nM
Ki [2]: 0.08 nM

Cc1cc(OCC(=O)N[C@H]2CC[C@](F)(CCN3CCc4ccc(OCC(F)(F)F)nc4CC3)CC2)no1 [III-104]
Ki [1]: > 1700 nM
Ki [2]: 0.53 nM

O=C(N[C@H]1CC[C@H](CCN2CCc3nc(OCC(F)F)ncc3C2)CC1)c1cccc2ncccc12 [Compound I-136]
Ki [1]: > 1800 nM
Ki [2]: 25 nM

Cn1cc2c(C(=O)N[C@H]3CC[C@H](CCN4CCc5ccc(OCC(F)F)nc5CC4)CC3)cccc2n1 [II-057]
Ki [1]: > 1700 nM
Ki [2]: 0.014 nM

Cc1ncc(CC(=O)N[C@H]2CC[C@H](CCN3CCc4nc(OCC(C)(C)F)sc4CC3)CC2)s1 [II-099]
Ki [1]: > 1900 nM
Ki [2]: 0.52 nM

Cc1ncc(CC(=O)N[C@H]2CC[C@H](CCN3CCc4ccc(OC5CCOC5)nc4CC3)CC2)s1 (some centres unmarked) [III-052]
Ki [1]: > 1800 nM
Ki [2]: 1.1 nM

CCn1c(C(=O)N[C@H]2CC[C@H](CCN3CCc4ccc(OCC(F)(F)F)nc4CC3)CC2)cccc1=O [II-081]
Ki [1]: 230 nM
Ki [2]: 0.048 nM

Cc1nnc(CC(=O)N[C@H]2CC[C@](F)(CCN3CCc4ccc(OCC(F)(F)F)nc4CC3)CC2)o1 [III-082]
Ki [1]: 410 nM
Ki [2]: 0.45 nM

Cc1nc(CC(=O)N[C@H]2CC[C@H](CCN3CCc4nc(CCC(F)(F)F)sc4CC3)CC2)no1 [II-019]
Ki [1]: > 1800 nM
Ki [2]: 2.3 nM

Cc1ncc(CC(=O)N[C@H]2CC[C@H](CCN3CCc4sc(OCC(F)(F)F)nc4C(C)C3)CC2)s1 (some centres unmarked) [III-110]
Ki [1]: 610 nM
Ki [2]: 0.49 nM

Cc1ncc(OCC(=O)N[C@H]2CC[C@](F)(CCN3CCc4ccc(OCC(F)(F)F)nc4CC3)CC2)cn1 [III-088]
Ki [1]: 310 nM
Ki [2]: 0.31 nM

COc1cc(CC(=O)N[C@H]2CC[C@H](CCN3CCc4ccc(OCC(F)(F)F)nc4CC3)CC2)on1 [II-077]
Ki [1]: > 1800 nM
Ki [2]: 0.095 nM

Cn1cc2c(C(=O)N[C@H]3CC[C@H](CCN4CCc5cnc(CCC(F)(F)F)nc5CC4)CC3)cccc2n1 [II-072]
Ki [1]: > 1800 nM
Ki [2]: 0.48 nM

Cc1ncc(/C=C/C(=O)N[C@H]2CC[C@H](CCN3CCc4nc(OCC(F)F)sc4CC3)CC2)s1 [III-274]
Ki [1]: 140 nM
Ki [2]: 0.12 nM

Cc1ncc(CC(=O)N[C@H]2CC[C@H](CCN3CCc4ccc(OCC(F)(F)F)nc4CC3)OC2)o1 [III-231]
Ki [1]: 490 nM
Ki [2]: 0.7 nM

CC(C)Oc1ccc2c(n1)CCN(CC[C@H]1CC[C@H](NC(=O)c3cccc4nn(C)cc34)CC1)CC2 [II-050]
Ki [1]: > 1800 nM
Ki [2]: 0.51 nM

Cn1cc2c(C(=O)N[C@H]3CC[C@H](CCN4CCc5sc(N6CC(F)(F)C6)nc5C4)CC3)cccc2n1 [III-439]
Ki [1]: 500 nM
Ki [2]: 0.29 nM

Cc1nnc(CC(=O)N[C@H]2CC[C@](F)(CCN3CCc4nc(OCC(F)(F)F)sc4CC3)CC2)s1 [III-269]
Ki [1]: 290 nM
Ki [2]: 0.36 nM

O=C(N[C@H]1CC[C@H](CCN2CCc3ccc(OCC(F)F)nc3C2)CC1)c1cccc2ncccc12 [Compound I-139]
Ki [1]: > 1700 nM
Ki [2]: 0.69 nM
